Here are results for three compounds from patent US20160213742A1, “COMPOSITIONS AND METHODS FOR THE TREATMENT OF FUNGAL INFECTIONS” (priority 2013, published 2016).

What all share (format): cell-based
The subject of one test is C. krusei ATCC 14243. In words: microbe, parasite or virus in culture. An outline of the steps: (§1)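 Broth microdilution in CLSI-prepared RPMI, pH 7.0, with serial 2-fold drug dilutions; final DMSO 1.25% for investigational agents. Candida inoculum from 0.5 McFarland diluted 1:100; Aspergillus at ~0.2-2.5×10^4 CFU/mL. Incubated 35° C. ~24-48 hr; MIC at visible growth inhibition, MEC at compact rounded hyphal form.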

The test system of the next test is C. albicans ATCC 90028. In words: microbe, parasite or virus in culture. An outline of the steps: as §1
Another test relates to C. glabrata ATCC 90030. In words: microbe, parasite or virus in culture. An outline of the steps: as §1
In test [1] the test system is C. parapsilosis ATCC 22019. In words: microbe, parasite or virus in culture. An outline of the steps:
as §1

Another test has as its system human neutrophils. In words: Microfluidic Neutrophil Chemotaxis assay. As to conditions: for neutrophil (NF) migration counts (FIG. 1): 4 hour timepoint, in the presence of Aspergillus fumigatus, Compound 1, Compound 11, caspofungin acetate 10 nM, fMLP 100 nM, relative to A. fumigatus alone. From the text:
Two layers of photoresist (SU8; […] The wafer with patterned photoresist was used as a mold to produce polydimethylsiloxane (PDMS) (Fisher Scientific) devices, which were then bonded to the base of glass-bottom 12- or 24-well plates, using an oxygen plasma machine (Nordson-March). De-identified, fresh human blood samples from healthy volunteers, aged 18 years and older, who were not receiving immunosuppressants, were purchased from Research Blood Components, LLC. Peripheral blood was drawn in tubes containing a final concentration of 5 mM EDTA (Vacutainer; Becton Dickinson) and processed within 2 h of blood collection. Using a sterile technique, neutrophils were isolated from whole blood using HetaSep followed by the EasySep Human Neutrophil Enrichment Kit (STEMCELL Technologies) following the manufacturer's protocol. The purity of neutrophils was assessed to be >98% using the Sysmex KX-21N Hematology Analyzer (Sysmex America, Inc.). White blood cells were isolated using Hetasep followed by a 5 min spin down and wash with 1×PBS. White blood cells were stained with Hoechst (32.4 μM) (Sigma) following the manufacture's protocols. The final aliquots of white blood cells were resuspended in RPMI plus 10% fetal bovine serum (FBS−stock 50 mL FBS/450 mL RPMI) (Sigma-Aldrich) at a concentration of 20,000 cells/2 μL and kept at 37° C. Cells were then immediately introduced into the microfluidic device for the chemotaxis and Aspergillus fumigatus killing assay. All experiments were repeated at least three times with neutrophils or white blood cells from three different healthy donors. Immediately after bonding to the well plate, donut-shaped devices were filled with Aspergillus fumigatus conidia at a concentration of 10^6 cells/mL with or without either Compound 1 or Compound 11 [10 nM], caspofungin acetate [10 nM] and/or a solution of the chemoattractant N-formyl-methionyl-leucyl-phenylalanine (fMLP) [100 nM](Sigma-Aldrich, St. Louis, Mo.). The device was then placed in a vacuum for 15 min. The solution filled all of the FCCs as the air was displaced. The devices were then vigorously washed five times with 1×PBS to remove any residual Aspergillus fumigatus conidia, drug or chemoattractant that was outside of the FCCs. The device was then submerged in 0.5 mL of cell media. Neutrophils or white blood cells (20,000 cells/2 μL) were then pipetted into the cell loading chamber (CLC) using a gel-loading pipette tip. […] Image analysis of cell migration counts and fungi growth was analyzed by hand using Image J software. Neutrophil counts per chamber were counted every 15 min for the first 2 hours of the experiment and then every hour for the remaining 16 hours. Percentage of conidia that converted to hyphal growth was measured by counting conidia loaded per chamber before neutrophils or WBCs were loaded into the chamber and counting numbers of these conidia that grew hyphae by 18 hours. Fungal growth velocity was calculated using Image J. The 16 chambers in each device (n=3) were analyzed for at least three different healthy donors.

Values after ≈ are worked out from the molar mass of the structure shown.

Consider `CC[C@H](C)C[C@H](C)CCCCCCCCC(=O)N[C@H]1C[C@@H](O)[C@@H](NCCN)NC(=O)[C@@H]2[C@@H](O)CCN2C(=O)[C@H]([C@H](O)CCNC(=O)[C@H](Cc2ccccc2)NC(=O)[C@H](CC(C)C)NC(=O)[C@H](CCSC)NC=O)NC(=O)[C@H]([C@H](O)[C@@H](O)c2ccc(O)cc2)NC(=O)[C@@H]2C[C@@H](O)CN2C(=O)[C@H]([C@@H](C)O)NC1=O` [Compound 1], for which the MIC was 8 µg/mL (≈ 5.29 µM) against C. krusei ATCC 14243 (ATCC 14243, pH 7); 2 µg/mL (≈ 1.32 µM) in the test with C. albicans ATCC 90028 (ATCC 90028, pH 7); 4 µg/mL (≈ 2.64 µM) with C. glabrata ATCC 90030 (ATCC 90030, pH 7); 16 µg/mL (≈ 10.6 µM) in test [1] (ATCC 22019, pH 7). Also, in the test with human neutrophils, the “neutrophil (NF) migration counts (FIG. 1)” value (shortened to “neutrophil … (FIG. 1)”) is “increased NF migration”.
Take `CC[C@H](C)C[C@H](C)CCCCCCCCC(=O)N[C@H]1C[C@@H](O)[C@@H](OCCN)NC(=O)[C@@H]2[C@@H](O)CCN2C(=O)[C@H]([C@H](O)CCNC(=O)[C@H](Cc2ccccc2)NC(=O)[C@H](CC(C)C)NC(=O)[C@H](CCSC)NC=O)NC(=O)[C@H]([C@H](O)[C@@H](O)c2ccc(O)cc2)NC(=O)[C@@H]2C[C@@H](O)CN2C(=O)[C@H]([C@@H](C)O)NC1=O` [Compound 11]: the MIC against C. krusei ATCC 14243 (ATCC 14243, pH 7) worked out at 16 µg/mL (≈ 10.6 µM); in the test on C. albicans ATCC 90028 (ATCC 90028, pH 7), 2 µg/mL (≈ 1.32 µM); with C. glabrata ATCC 90030 (ATCC 90030, pH 7), 8 µg/mL (≈ 5.28 µM); in test [1] (ATCC 22019, pH 7), 32 µg/mL (≈ 21.1 µM). Also, the “neutrophil … (FIG. 1)” value with human neutrophils is “increased NF migration”. For the same compound, in the test with human neutrophils (with A. fumigatus, three healthy blood donors, t=0, 8, and 16 hours), the “timecourse of neutrophil (PMNs) migration in FCCs (FIG. 4)” value is on record as “migration of PMNs”.
Turning to “caspofungin acetate [reference compound]”, the MIC was in the range of 0.5 to 1 µg/mL against C. krusei ATCC 14243 (C. krusei ATCC 14243, RPMI pH 7.0, 35° C., 24-48 hr); 0.03 to 0.12 µg/mL with C. albicans ATCC 90028 (C. albicans ATCC 90028, RPMI pH 7.0, 35° C., 24-48 hr); 0.06 to 0.25 µg/mL against C. glabrata ATCC 90030 (C. glabrata ATCC 90030, RPMI pH 7.0, 35° C., 24-48 hr); 0.5 to 1 µg/mL in test [1] (C. parapsilosis ATCC 22019, RPMI pH 7.0, 35° C., 24-48 hr). For the same compound, the “neutrophil … (FIG. 1)” value in the test on human neutrophils is listed as “did not give increased NF migration”.
